# Patent publication US12643918B2, “Thiadiazolone derivatives and their use as AMPK agonists for the treatment of diabetes and related disorders” (Betagenon AB, priority 2020, dated 2026)
# “Also recorded” adds a separate entry of the source. Read-outs that look alike come from different tables or passages of the source.
# What was measured:
# [1] = Single dose oral pharmacokinetic study of Compounds 1 and 3 in Sprague Dawley rats; type: in vivo
# Description: 10.0 mL of 2% w/v methyl cellulose solution in phosphate buffer (pH 7.5) was added to a 100 mL conical flask along with 1 g of 2 mm glass beads. The solution was vigorously stirred on a magnetic stirrer. 100 mg of Compound 1 was slowly added to the solution, and the solution was vigorously stirred for approximately 1 h. The pH of the formulation was measured to be 7.49. Each formulation was freshly prepared prior to administration to the animals. The final concentration of Compound 1 in of the formulation was 10 mg/mL. The formulation was administered at 5 mL/kg body weight.
# 10.0 mL of 2% w/v methyl cellulose solution in phosphate buffer (pH 7.5) was added to a 100 mL of conical flask together with 1 g of 2 mm glass beads. The solution was vigorously stirred on a magnetic stirrer. 134 mg of Compound 3 was slowly added to the solution, and the solution was vigorously stirred for approximately 1 h. The pH of the formulation was measured to be 7.44. Each formulation was freshly prepared prior to administration to the animals. The final concentration of Compound 3 in the formulation was 13.4 mg/mL, which is equivalent to 10 mg/mL of Compound 1. The formulation was administered at 5 mL/kg body weight.
# The doses of 50 mg/kg and 67 mg/kg b.w. for Compound 1 and Compound 3, respectively, were selected for comparison of equimolar doses.
# Adult healthy male Sprague Dawley rats aged 9 to 11 weeks were used for experimentation after a minimum three days of acclimatisation. Fed state animals were administered the formulation of Compound 1 or Compound 3 orally via gavage at a dose of 50 mg/kg or 67 mg/kg body weight, respectively.
# Under mild isoflurane anesthesia, blood specimens were collected by retro-orbital puncture method using capillary tubes into pre-labeled tubes containing anticoagulant (K2EDTA: 2 mg/mL blood) during the next 72 hours post-dosing, as detailed in Table 6. For blood sampling at multiple time points, the right and left eyes were used alternatively. Collected blood specimens were centrifuged at 6000 rpm, 4° C. for 10 minutes and the plasma samples were separated and stored at −80° C. until analysis.
# AMPK = experiment: Activation of AMPK: Western blot of p-T172 AMPK in INS-1E insulinoma cells; type: cell-based; settings: for ratio between p-T172 AMPK and non-phosphorylated AMPK: INS-1E cells, control = 1.00; for Phosphorylation of AMPK (T172) / AMPK activation (in words): cultured INS-1E cells, Western blot
# Description: INS-1E cells were cultivated as described in Steneberg et al., JCI Insight. 2018; 3(12):e99114. https://doi.org/10.1172/jci.insight.99114, using 5% instead of 10% fetal bovine serum when plated for treatment.
# Compound 3 was dissolved at 10 mM in DMSO and frozen at −20° C.
# Compound 5 was dissolved at 10 mM in a 50:50 water/DMSO mixture, incubated for 15 minutes at room temperature in ultrasonic bath (VWR ultrasonic cleaner), and stored at room temperature.
# The INS-1E cells were treated in serum free medium with increasing doses of Compounds 3 and 5 for 4 and 16 hours, respectively, in accordance with the methods described in Steneberg et al., JCI Insight. 2018; 3(12):e99114. https://doi.org/10.1172/jci.insight.99114.
# Western blot analysis of the INS-1E cells was performed as described in Steneberg et. al., JCI Insight. 2018; 3(12):e99114. https://doi.org/10.1172/jci.insight.99114. The cell lysates were passed through a 30-gauge needle, ˜8-times and centrifuged for 10 min at +4° C. at 14000 rpm. Quantified values for AMPKα, and phosphorylated-T172 AMPKα, were normalized toward the quantified values for β-Actin.
# [2] = Stability of compounds in USP/phosphate buffer pH 7.40; type: physicochemical; settings: for % remaining compared to 0.0 min: Phosphate Buffer pH 7.40, 37° C., 5 μM; for Stability compared to Compound 1 (in words): mildly basic solutions (pH 7.4)
# Description: 5 μM solutions of Compounds 1, 3 and 5 in USP buffer (pH: 7.40) were prepared with 5 mM DMSO stock solutions.
# [3] = Solubility of compounds at different pH; type: physicochemical; settings: for solubility at 2 h / solubility at 20 h: 30 °C, thermodynamic from solid, read-out: Absolute Solubility; for solubility at 2 h: 2 hours incubation; for solubility at 20 h: 20 hours incubation
# Description: Approximately 5 mg of each test compound (Compounds 1 and 5) was weighed in duplicate, and each weighed sample was transferred to a separate centrifuge tube containing 5 mL of the respective buffer. All the tubes were tightly stoppered and agitated at a constant rate at 30±1° C. using an orbital shaker.
# […] 50 μL of the buffer solution from each removed tube was transferred into a 10 mL tube and made up to the mark with diluent. Then 2.5 mL of the supernatant of each tube was transferred into a 50 mL tube and made up to […].
# The nominal concentration of the solution in each 50 mL tube was 5 μg/mL.
# Linearity solutions of 40 ng/mL to 10000 ng/mL were plotted.
# [4] = mice, Das et al. Reg Anesth Pain Med 2019, cited from earlier work
# [5] = plasma Compound 1 after oral Compound 1, 50 mg/kg b.w., fed male rats
# [6] = pH 9.2, aqueous buffer, Alkaline Borate Buffer, pH 9.20
# [7] = pH 4.5, aqueous buffer, Acetate Buffer, pH 4.50
# [8] = pH 7.4, aqueous buffer, Phosphate Buffer, pH 7.40
structure (smiles),measurement,setting,value
"O=C(O)CCC(=O)OCn1c(=NC(=O)c2ccc(Cl)cc2)sn(Cc2ccc(Cl)cc2)c1=O (stereo in doubt) [Compound 3, 4-({(5Z)-5-[(4-chlorobenzoyl)imino]-2-[(4-chlorophenyl)methyl]-3-oxo-1,2,4-thiadiazolidin-4-yl}methoxy)-4-oxobutanoic acid]",Increase in systemic exposure of Compound 1 after oral Compound 3 compared to administration of Compound 1,"[1]; equimolar oral doses, rats",two-fold
same,ratio between p-T172 AMPK and non-phosphorylated AMPK,"AMPK; 2.5 μM, 4 h, 0.1% DMSO",1.62
same,ratio between p-T172 AMPK and non-phosphorylated AMPK,"AMPK; 5 μM, 4 h, 0.1% DMSO",1.88
same,ratio between p-T172 AMPK and non-phosphorylated AMPK,"AMPK; 10 μM, 4 h, 0.1% DMSO",2.95
same,Phosphorylation of AMPK (T172) / AMPK activation (in words),AMPK,increase phosphorylation of AMPK in a dose-dependent manner; also recorded: increase phosphorylated-T172 AMPK in a dose-dependent manner
same,% remaining compared to 0.0 min,[2]; 0.0 min,100.00%
same,% remaining compared to 0.0 min,[2]; 15 min,86.96%
same,% remaining compared to 0.0 min,[2]; 30 min,93.61%
same,% remaining compared to 0.0 min,[2]; 60 min,88.74%
same,% remaining compared to 0.0 min,[2]; 120 min,75.40%
same,Stability compared to Compound 1 (in words),[2],comparable stability to Compound 1
"O=C(Nc1nc(=O)n(Cc2ccc(Cl)cc2)s1)c1ccc(Cl)cc1 [Compound 1, 4-chloro-N-[2-[(4-chlorophenyl)methyl]-3-oxo-1,2,4-thiadiazol-5-yl]benzamide]",concentration at 1 h,"[1]; male, Sprague Dawley, rat, plasma, 50 mg/kg b.w., after oral Compound 1, 50 mg/kg, 1.00 h",4240 ng/mL
same,concentration at 2 h,"[1]; male, Sprague Dawley, rat, plasma, 50 mg/kg b.w., after oral Compound 1, 50 mg/kg, 2.00 h",7990 ng/mL
same,concentration at 4 h,"[1]; male, Sprague Dawley, rat, plasma, 50 mg/kg b.w., after oral Compound 1, 50 mg/kg, 4.00 h",14000 ng/mL
same,concentration at 6 h,"[1]; male, Sprague Dawley, rat, plasma, 50 mg/kg b.w., after oral Compound 1, 50 mg/kg, 6.00 h",17000 ng/mL
same,concentration at 8 h,"[1]; male, Sprague Dawley, rat, plasma, 50 mg/kg b.w., after oral Compound 1, 50 mg/kg, 8.00 h",19300 ng/mL
same,concentration at 24 h,"[1]; male, Sprague Dawley, rat, plasma, 50 mg/kg b.w., after oral Compound 1, 50 mg/kg, 24.00 h",9440 ng/mL
same,concentration at 0 h,"[1]; male, Sprague Dawley, rat, plasma, after oral Compound 1, 50 mg/kg, 0.00 h",0 ng/mL
same,concentration at 0.25 h,"[1]; male, Sprague Dawley, rat, plasma, after oral Compound 1, 50 mg/kg, 0.25 h",620 ng/mL
same,concentration at 0.5 h,"[1]; male, Sprague Dawley, rat, plasma, after oral Compound 1, 50 mg/kg, 0.50 h",1980 ng/mL
same,concentration at 48 h,"[1]; male, Sprague Dawley, rat, plasma, after oral Compound 1, 50 mg/kg, 48.00 h",720 ng/mL
same,concentration at 72 h,"[1]; male, Sprague Dawley, rat, plasma, after oral Compound 1, 50 mg/kg, 72.00 h",0 ng/mL
same,AUCextrap,[1]; [5],2.33 ± 1.74%
same,AUCinf,[1]; [5],458.31 ± 154.77 µg·h/mL
same,AUClast,[1]; [5],449.40 ± 157.75 µg·h/mL
same,Cmax,[1]; [5],19600 ± 5540 ng/mL
same,MRTlast,[1]; [5],14.78 ± 0.68 h
same,T1/2,[1]; [5],8.42 ± 1.47 h
same,Tmax,[1]; [5],7.33 ± 1.16 h
same,solubility at 2 h,[3]; [6],29 µg/mL
same,solubility at 20 h,[3]; [6],44 µg/mL
same,% remaining compared to 0.0 min,[2]; 0.0 min,100.00%
same,% remaining compared to 0.0 min,[2]; 15 min,97.62%
same,% remaining compared to 0.0 min,[2]; 30 min,101.31%
same,% remaining compared to 0.0 min,[2]; 60 min,99.41%
same,% remaining compared to 0.0 min,[2]; 120 min,106.18%
same,Effect on pain (in words),[4]; listed as compound of formula II,effective at treating pain; also recorded: capable of treating pain
"O=C(/N=c1\sn(Cc2ccc(Cl)cc2)c(=O)n1COP(=O)([O-])[O-])c1ccc(Cl)cc1.[Na+].[Na+] [Compound 5, disodium {(5Z)-5-[(4-chlorobenzoyl)imino]-2-[(4-chlorophenyl)methyl]-3-oxo-1,2,4-thiadiazolidin-4-yl}methyl phosphate]",ratio between p-T172 AMPK and non-phosphorylated AMPK,"AMPK; 2.5 μM, 16 h, 0.05% DMSO",1.29
same,ratio between p-T172 AMPK and non-phosphorylated AMPK,"AMPK; 5 μM, 16 h, 0.05% DMSO",1.62
same,ratio between p-T172 AMPK and non-phosphorylated AMPK,"AMPK; 10 μM, 16 h, 0.05% DMSO",3.21
same,Phosphorylation of AMPK (T172) / AMPK activation (in words),AMPK; phosphate,increase phosphorylation of AMPK in a dose-dependent manner; also recorded: increase phosphorylated-T172 AMPK in a dose-dependent manner
same,solubility at 2 h,[3]; [7],15 µg/mL
same,solubility at 20 h,[3]; [7],15 µg/mL
same,solubility at 2 h,[3]; [8],119 µg/mL
same,solubility at 20 h,[3]; [8],98 µg/mL
same,solubility at 2 h,[3]; [6],720 µg/mL
same,solubility at 20 h,[3]; [6],1240 µg/mL
same,solubility at 2 h,[3]; Ultrapure water,419 µg/mL
same,solubility at 20 h,[3]; Ultrapure water,36 µg/mL
same,Solubility relative to Compound 1,[3]; basic solution,up to 30 times
same,Solubility compared to Compound 1 (in words),[3]; basic solutions (pH>7) and mildly acidic conditions,higher solubility compared to Compound 1
same,% remaining compared to 0.0 min,[2]; 0.0 min,100.00%
same,% remaining compared to 0.0 min,[2]; 15 min,103.92%
same,% remaining compared to 0.0 min,[2]; 30 min,107.58%
same,% remaining compared to 0.0 min,[2]; 60 min,107.88%
same,% remaining compared to 0.0 min,[2]; 120 min,97.30%
same,Stability compared to Compound 1 (in words),[2],comparable stability to Compound 1
CN(C)C(=N)N=C(N)N [metformin],Effect on pain (in words),[4],effective at treating pain
